Assay results reported in US8119624B2, “Fused phenyl amido heterocyclic compounds” (Pfizer Inc., priority 2006, dated 2012).

Target: T1, Full-length glucokinase (beta cell isoform) (Homo sapiens, UniProt P35557)
T1 construct: Full-length glucokinase (beta cell isoform) was His-tagged at N-terminus; His tag (N); made in house
T1 sequence (P35557 1-465): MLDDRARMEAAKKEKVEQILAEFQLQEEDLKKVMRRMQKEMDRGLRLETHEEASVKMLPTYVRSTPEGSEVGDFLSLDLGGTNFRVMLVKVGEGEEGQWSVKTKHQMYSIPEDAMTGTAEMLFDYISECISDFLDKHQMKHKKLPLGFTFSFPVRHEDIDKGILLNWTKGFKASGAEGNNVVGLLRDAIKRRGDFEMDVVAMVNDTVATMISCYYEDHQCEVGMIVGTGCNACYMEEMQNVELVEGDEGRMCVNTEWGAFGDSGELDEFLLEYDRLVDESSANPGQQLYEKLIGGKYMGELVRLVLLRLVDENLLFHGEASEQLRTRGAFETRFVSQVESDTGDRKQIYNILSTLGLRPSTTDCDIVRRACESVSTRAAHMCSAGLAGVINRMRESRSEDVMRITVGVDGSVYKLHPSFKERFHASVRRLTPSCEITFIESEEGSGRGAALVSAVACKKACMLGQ
Experiment: Glucokinase biochemical assay (PK/LDH-coupled, NADH depletion at 340 nm): % activation, EC50, % max activation
Conditions: 5 mM glucose; for activation at 10 µM: 10 uM compound, % Activation=(Va/Vo−1)×100, read-out: % Activation at 10 uM; for EC50: GK activation, read-out: EC50; for Emax: fitted maximum activation, read-out: % Max Activation
In short: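 N-terminally His-tagged full-length human beta-cell glucokinase, room temperature, 5 mM glucose, 1 mM ATP, PK/LDH-coupled with 0.7 mM NADH, 1% DMSO final. Initial velocity from the 200–900 s slope of A340 decline. % activation = (Va/Vo−1)×100, measured across compound concentrations.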

Row | activation at 10 µM [%] | EC50 [nM] | Emax [%] | Compound
1 | 73.9 | 2000 | 94 | COCC1Cc2c(Oc3ccc(C(=O)N4CCC4)c(F)c3)cc(C(=O)Nc3ccn(C)n3)cc2O1 (stereo not shown) [Example 204, 4-[4-(Azetidine-1-carbonyl)-3-fluoro-phenoxy]-2-methoxymethyl-2,3-dihydro-benzofuran-6-carboxylic acid (1-methyl-1H-pyrazol-3-yl)-amide]
2 | 90.8 | 420 | 94.5 | COCC1Cc2c(Oc3ccc(C(=O)N(C)C)c(F)c3)cc(C(=O)Nc3ccn(C)n3)cc2O1 (stereo not shown) [Example 205, 4-(4-Dimethylcarbamoyl-3-fluoro-phenoxy)-2-methoxymethyl-2,3-dihydro-benzofuran-6-carboxylic acid (1-methyl-1H-pyrazol-3-yl)-amide]
3 | 83.9 | 710 | 98 | COCC1Cc2c(Oc3ccc(C(=O)N4CCC4)cc3)cc(C(=O)Nc3ccn(C)n3)cc2O1 (stereo not shown) [Example 208, 4-[4-(Azetidine-1-carbonyl)-phenoxy]-2-methoxymethyl-2,3-dihydro-benzofuran-6-carboxylic acid (1-methyl-1H-pyrazol-3-yl)-amide]
4 | 83.5 | 1300 | 90 | COCC1Cc2c(Oc3ccc(C(=O)N(C)C)cc3)cc(C(=O)Nc3ccn(C)n3)cc2O1 (stereo not shown) [Example 211, 4-(4-Dimethylcarbamoyl-phenoxy)-2-methoxymethyl-2,3-dihydro-benzofuran-6-carboxylic acid (1-methyl-1H-pyrazol-3-yl)-amide]
5 | 12 | – | – | CC(C)Oc1cc(C(=O)Nc2ccn(C)n2)cc2c1CC(COc1ccccc1)O2 (stereo not shown) [Example 214, 4-Isopropoxy-2-phenoxymethyl-2,3-dihydro-benzofuran-6-carboxylic acid (1-methyl-1H-pyrazol-3-yl)-amide]
6 | 16.7 | – | – | CC(C)Oc1cc(C(=O)Nc2ccn(C)n2)cc2c1CC(CO)O2 (stereo not shown) [Example 215, 2-Hydroxymethyl-4-isopropoxy-2,3-dihydro-benzofuran-6-carboxylic acid (1-methyl-1H-pyrazol-3-yl)-amide]
7 | 13 | – | – | COCC1Cc2c(OC(C)C)cc(C(=O)Nc3ccn(C)n3)cc2O1 (stereo not shown) [Example 216, 4-Isopropoxy-2-methoxymethyl-2,3-dihydro-benzofuran-6-carboxylic acid (1-methyl-1H-pyrazol-3-yl)-amide]
8 | 5.3 | – | – | CCOCC1Cc2c(OC(C)C)cc(C(=O)Nc3ccn(C)n3)cc2O1 (stereo not shown) [Example 217, 2-Ethoxymethyl-4-isopropoxy-2,3-dihydro-benzofuran-6-carboxylic acid (1-methyl-1H-pyrazol-3-yl)-amide]
9 | 43.1 | > 10000 | – | CC(C)Oc1cc(C(=O)Nc2ccn(C)n2)cc2c1CC(CN(C)C)O2 (stereo not shown) [Example 218, 2-Dimethylaminomethyl-4-isopropoxy-2,3-dihydro-benzofuran-6-carboxylic acid (1-methyl-1H-pyrazol-3-yl)-amide]
10 | 8 | – | – | CC(C)Oc1cc(C(=O)Nc2ccn(C)n2)cc2c1CC(CNC1CC1)O2 (stereo not shown) [Example 219, 2-Cyclopropylaminomethyl-4-isopropoxy-2,3-dihydro-benzofuran-6-carboxylic acid (1-methyl-1H-pyrazol-3-yl)-amide]
11 | 13.8 | – | – | CC(C)Oc1cc(C(=O)Nc2ccccn2)cc2c1CC(Cc1ccccc1)O2 (stereo not shown) [Example 220, 2-Benzyl-4-isopropoxy-2,3-dihydro-benzofuran-6-carboxylic acid pyridin-2-ylamide]
12 | 8.4 | – | – | CC(C)Oc1cc(C(=O)Nc2ccn(C)n2)cc2c1CC(Cc1ccccc1)O2 (stereo not shown) [Example 221, 2-Benzyl-4-isopropoxy-2,3-dihydro-benzofuran-6-carboxylic acid (1-methyl-1H-pyrazol-3-yl)-amide]
13 | 61.1 | > 10000 | – | Cn1ccc(NC(=O)c2cc(OCc3ccccc3)c3c(c2)OC(C(F)F)C3)n1 (stereo not shown) [Example 222, 4-Benzyloxy-2-difluoromethyl-2,3-dihydro-benzofuran-6-carboxylic acid (1-methyl-1H-pyrazol-3-yl)-amide]
14 | 112 | 680 | 127 | Cn1ccc(NC(=O)c2cc(Oc3cc(F)c(C(=O)N4CCC4)c(F)c3)c3c(c2)OC(C(F)F)C3)n1 (stereo not shown) [Example 223, 4-[4-(Azetidine-1-carbonyl)-3,5-difluoro-phenoxy]-2-difluoromethyl-2,3-dihydro-benzofuran-6-carboxylic acid (1-methyl-1H-pyrazol-3-yl)-amide]
15 | 142 | 2300 | 160 | Cn1ccc(NC(=O)c2cc(Oc3ccc(S(C)(=O)=O)cc3)c3c(c2)OC(CF)C3)n1 (stereo not shown) [Example 224, 2-Fluoromethyl-4-(4-methanesulfonyl-phenoxy)-2,3-dihydro-benzofuran-6-carboxylic acid (1-methyl-1H-pyrazol-3-yl)-amide]
16 | 103 | 2930 | 242 | Cn1ccc(NC(=O)c2cc(Oc3ccc(S(C)(=O)=O)cc3)c3c(c2)OC(C(F)F)C3)n1 (stereo not shown) [Example 225, 2-Difluoromethyl-4-(4-methanesulfonyl-phenoxy)-2,3-dihydro-benzofuran-6-carboxylic acid (1-methyl-1H-pyrazol-3-yl)-amide]
17 | 112 | 640 | 137 | Cn1ccc(NC(=O)c2cc(Oc3ccc(C(=O)N4CCC4)cc3)c3c(c2)OC(C(F)F)C3)n1 (stereo not shown) [Example 226, 4-[4-(Azetidine-1-carbonyl)-phenoxy]-2-difluoromethyl-2,3-dihydro-benzofuran-6-carboxylic acid (1-methyl-1H-pyrazol-3-yl)-amide]
18 | 165 | 690 | 184 | Cn1ccc(NC(=O)c2cc(Oc3ccc(S(C)(=O)=O)cc3)c3c(c2)OC(C)(CO)C3)n1 (stereo not shown) [Example 227, 2-Hydroxymethyl-4-(4-methanesulfonyl-phenoxy)-2-methyl-2,3-dihydro-benzofuran-6-carboxylic acid (1-methyl-1H-pyrazol-3-yl)-amide]
19 | 151 | 500 | 156 | COCC1(C)Cc2c(Oc3ccc(S(C)(=O)=O)cc3)cc(C(=O)Nc3ccn(C)n3)cc2O1 (stereo not shown) [Example 228, 4-(4-Methanesulfonyl-phenoxy)-2-methoxymethyl-2-methyl-2,3-dihydro-benzofuran-6-carboxylic acid (1-methyl-1H-pyrazol-3-yl)-amide]
20 | 101 | 120 | 97 | CN(C)C(=O)c1ccc(Oc2cc(C(=O)Nc3ccn(C)n3)cc3c2CC(C)(CO)O3)cc1F (stereo not shown) [Example 229, 4-(4-Dimethylcarbamoyl-3-fluoro-phenoxy)-2-hydroxymethyl-2-methyl-2,3-dihydro-benzofuran-6-carboxylic acid (1-methyl-1H-pyrazol-3-yl)-amide]
21 | 91.8 | 330 | 95 | Cc1ccc(NC(=O)c2cc(Oc3ccc(S(C)(=O)=O)cc3)c3c(c2)OC(C)(CO)C3)nc1 (stereo not shown) [Example 230, 2-Hydroxymethyl-4-(4-methanesulfonyl-phenoxy)-2-methyl-2,3-dihydro-benzofuran-6-carboxylic acid (5-methyl-pyridin-2-yl)-amide]
22 | 118 | 100 | 106 | COCC1(C)Cc2c(Oc3ccc(S(C)(=O)=O)cc3)cc(C(=O)Nc3ccc(C)cn3)cc2O1 (stereo not shown) [Example 231, 4-(4-Methanesulfonyl-phenoxy)-2-methoxymethyl-2-methyl-2,3-dihydro-benzofuran-6-carboxylic acid (5-methyl-pyridin-2-yl)-amide]
23 | 188 | 390 | 184 | Cn1ccc(NC(=O)c2cc(Oc3ccc(S(C)(=O)=O)c(F)c3)c3c(c2)OC(C)(CO)C3)n1 (stereo not shown) [Example 232, 4-(3-Fluoro-4-methanesulfonyl-phenoxy)-2-hydroxymethyl-2-methyl-2,3-dihydro-benzofuran-6-carboxylic acid (1-methyl-1H-pyrazol-3-yl)-amide]
24 | 201 | 64 | 165 | Cc1ccc(NC(=O)c2cc(Oc3ccc(S(C)(=O)=O)c(F)c3)c3c(c2)OC(C)(CO)C3)nc1 (stereo not shown) [Example 233, 4-(3-Fluoro-4-methanesulfonyl-phenoxy)-2-hydroxymethyl-2-methyl-2,3-dihydro-benzofuran-6-carboxylic acid (5-methyl-pyridin-2-yl)-amide]
25 | 121 | 75 | 112 | COCC1(C)Cc2c(Oc3ccc(C(=O)N(C)C)c(F)c3)cc(C(=O)Nc3ccn(C)n3)cc2O1 (stereo not shown) [Example 234, 4-(4-Dimethylcarbamoyl-3-fluoro-phenoxy)-2-methoxymethyl-2-methyl-2,3-dihydro-benzofuran-6-carboxylic acid (1-methyl-1H-pyrazol-3-yl)-amide]
26 | 69.2 | > 10000 | – | Cn1ccc(NC(=O)c2cc(Oc3cc(F)ccc3S(C)(=O)=O)c3c(c2)OC(C)(CO)C3)n1 (stereo not shown) [Example 235, 4-(5-Fluoro-2-methanesulfonyl-phenoxy)-2-hydroxymethyl-2-methyl-2,3-dihydro-benzofuran-6-carboxylic acid (1-methyl-1H-pyrazol-3-yl)-amide]
